These compounds were tested against T1, CCR2 (Homo sapiens, UniProt P41597) (assay: hCCR2 (125-I hMCP-1) small molecule binding assay on human PBMCs). Details: 300 nM, 1 hr preincubation, human PBMCs; read-out: % @300 nM (printed in column IC50 1 hr preinc).
T1 construct: (leukophoresis pack); host or cells: human peripheral blood mononuclear cells (PBMCs) from a normal human leukophoresis pack
Procedure, shortened: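 Ficoll-isolated human PBMCs pre-incubated 30 min or 1 h with compound at 0.333 μM final (0.67% DMSO), then incubated 30 min at room temperature with 150 pM 125I-hMCP-1 in RPMI/0.1% BSA/20 mM HEPES. Filter-bound radioactivity counted by gamma counter. 100% inhibition defined with 1 μM hMCP-1; IC50 plates run n=2.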

T1 sequence (P41597 whole entry): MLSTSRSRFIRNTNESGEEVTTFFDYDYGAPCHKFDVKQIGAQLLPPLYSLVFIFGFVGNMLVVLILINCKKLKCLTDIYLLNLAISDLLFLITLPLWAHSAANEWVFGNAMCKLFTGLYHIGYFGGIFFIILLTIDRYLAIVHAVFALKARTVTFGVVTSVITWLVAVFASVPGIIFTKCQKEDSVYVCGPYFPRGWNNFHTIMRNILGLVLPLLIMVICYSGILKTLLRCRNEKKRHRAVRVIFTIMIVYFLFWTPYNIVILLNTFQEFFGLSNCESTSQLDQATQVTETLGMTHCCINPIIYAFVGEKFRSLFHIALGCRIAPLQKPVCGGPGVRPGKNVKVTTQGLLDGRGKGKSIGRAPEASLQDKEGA

In the case of `CO[C@@H]1COCC[C@@H]1N[C@@H]1CC[C@H](C(=O)N2C[C@@H]3C[C@H]2CN3c2cc(C(F)(F)F)ccn2)C1` [Example 65, ((1S,3R)-3-((3S,4S)-3-methoxy-tetrahydro-2H-pyran-4-ylamino)cyclopentyl)((1S,4S)-5-(4-(trifluoromethyl)pyridin-2-yl)-2,5-diaza-bicyclo[2.2.1]heptan-2-yl)methanone], the inhibition at 0.3 µM is reported as 1.5%.

Same assay, conditions: 125I-MCP-1, human PBMCs, 30 min preincubation; read-out: IC50 (nM) 30 min preinc

`CO[C@@H]1COCC[C@@H]1N[C@@H]1CC[C@@](C(=O)N2C[C@@H]3C[C@H]2CN3c2ccnc(C(F)(F)F)n2)(C2(O)CCC2)C1` [Example 48, 1,5-anhydro-2,3-dideoxy-3-{[(1R,3S)-3-(1-hydroxycyclobutyl)-3-({(1S,4S)-5-[2-(trifluoromethyl)pyrimidin-4-yl]-2,5-diazabicyclo[2.2.1]hept-2-yl}carbonyl)cyclopentyl]amino}-4-O-methyl-D-erythro-pentitol] and `CO[C@@H]1COCC[C@@H]1N[C@@H]1CC[C@@](C(=O)N2C[C@@H]3C[C@H]2CN3c2cc(C(F)(F)F)ncn2)(C2(O)CCC2)C1` [Example 49, 1,5-anhydro-2,3-dideoxy-3-{[(1R,3S)-3-(1-hydroxycyclobutyl)-3-({(1S,4S)-5-[6-(trifluoromethyl)pyrimidin-4-yl]-2,5-diazabicyclo[2.2.1]hept-2-yl}carbonyl)cyclopentyl]amino}-4-O-methyl-D-erythro-pentitol] are within 1.5-fold of each other in IC50: 25.3 nM for the first, 35.8 nM for the second.

Compared with `CO[C@@H]1COCC[C@@H]1N[C@@H]1CC[C@@](C(=O)N2C[C@@H]3C[C@H]2CN3c2cncc(C(F)(F)F)n2)(C2(O)CCC2)C1` [Example 50, 1,5-anhydro-2,3-dideoxy-3-{[(1R,3S)-3-(1-hydroxycyclobutyl)-3-({(1S,4S)-5-[6-(trifluoromethyl)pyrazin-2-yl]-2,5-diazabicyclo[2.2.1]hept-2-yl}carbonyl)cyclopentyl]amino}-4-O-methyl-D-erythro-pentitol], `CO[C@@H]1COCC[C@@H]1N[C@@H]1CC[C@@](C(=O)N2C[C@@H]3C[C@H]2CN3c2ccnc(C(F)(F)F)c2)(C2(O)CCC2)C1` [Example 51, 1,5-anhydro-2,3-dideoxy-3-{[(1R,3S)-3-(1-hydroxycyclobutyl)-3-({(1S,4S)-5-[2-(trifluoromethyl)pyridin-4-yl]-2,5-diazabicyclo[2.2.1]hept-2-yl}carbonyl)cyclopentyl]amino}-4-O-methyl-D-erythro-pentitol] is 3.2-fold higher in IC50: 7.14 nM for the first, 22.8 nM for the second.

First: CO[C@@H]1COCC[C@@H]1N[C@@H]1CC[C@@](C(=O)N2C[C@@H]3C[C@H]2CN3c2cc(C(F)(F)F)ccn2)(C(C)(C)O)C1 [Example 52, 1,5-anhydro-2,3-dideoxy-3-{[3-(1-hydroxy-1-methylethyl)-3-({5-[4-(trifluoromethyl)pyridin-2-yl]-2,5-diazabicyclo[2.2.1]hept-2-yl}carbonyl)cyclopentyl]amino}-4-O-methylpentitol]
Second: CO[C@@H]1COCC[C@@H]1N[C@@H]1CC[C@@](C(=O)N2C[C@@H]3C[C@H]2CN3c2cc(C(F)(F)F)cnn2)(C(C)(C)O)C1 [Example 55, 1,5-anhydro-2,3-dideoxy-3-{[3-(1-hydroxy-1-methylethyl)-3-({5-[5-(trifluoromethyl)pyridazin-3-yl]-2,5-diazabicyclo[2.2.1]hept-2-yl}carbonyl)cyclopentyl]amino}-4-O-methylpentitol]
The IC50 of the first is 5.2-fold lower: 5.4 nM for the first, 28.3 nM for the second.

`CO[C@@H]1COCC[C@@H]1N[C@@H]1CC[C@@](C(=O)N2C[C@@H]3C[C@H]2CN3c2cc(C(F)(F)F)ncn2)(C(C)(C)O)C1` [Example 53, 1,5-anhydro-2,3-dideoxy-3-{[3-(1-hydroxy-1-methylethyl)-3-({5-[6-(trifluoromethyl)pyrimidin-4-yl]-2,5-diazabicyclo[2.2.1]hept-2-yl}carbonyl)cyclopentyl]amino}-4-O-methylpentitol] and `CO[C@@H]1COCC[C@@H]1N[C@@H]1CC[C@@](C(=O)N2C[C@@H]3C[C@H]2CN3c2ccnc(C(F)(F)F)c2)(C(C)(C)O)C1` [Example 58, 1,5-anhydro-2,3-dideoxy-3-{[3-(1-hydroxy-1-methylethyl)-3-({5-[2-(trifluoromethyl)pyridin-4-yl]-2,5-diazabicyclo[2.2.1]hept-2-yl}carbonyl)cyclopentyl]amino}-4-O-methylpentitol] are within 1.5-fold of each other in IC50: 27.6 nM for the first, 38.5 nM for the second.

Going from `CO[C@@H]1COCC[C@@H]1N[C@@H]1CC[C@@](C(=O)N2C[C@@H]3C[C@H]2CN3c2nccc(C(F)(F)F)n2)(C(C)(C)O)C1` [Example 54] to `CO[C@@H]1COCC[C@@H]1N[C@@H]1CC[C@@](C(=O)N2C[C@@H]3C[C@H]2CN3c2ccnc(C(F)(F)F)n2)(C(C)(C)O)C1` [Example 56, 1,5-anhydro-2,3-dideoxy-3-{[3-(1-hydroxy-1-methylethyl)-3-({5-[2-(trifluoromethyl)pyrimidin-4-yl]-2,5-diazabicyclo[2.2.1]hept-2-yl}carbonyl)cyclopentyl]amino}-4-O-methylpentitol], the IC50 rises from 8.46 nM to 32.8 nM (3.9-fold). The first is the more potent here.

Compared with `CO[C@@H]1COCC[C@@H]1N[C@@H]1CC[C@@](C(=O)N2C[C@@H]3C[C@H]2CN3c2cccc(C(F)(F)F)n2)(C(C)(C)O)C1` [Example 57, 1,5-anhydro-2,3-dideoxy-3-{[3-(1-hydroxy-1-methylethyl)-3-({5-[6-(trifluoromethyl)pyridin-2-yl]-2,5-diazabicyclo[2.2.1]hept-2-yl}carbonyl)cyclopentyl]amino}-4-O-methylpentitol], `CO[C@@H]1COCC[C@@H]1N[C@@H]1CC[C@@](C(=O)N2C[C@@H]3C[C@H]2CN3c2cncc(C(F)(F)F)n2)(C(C)(C)O)C1` [Example 59, 1,5-anhydro-2,3-dideoxy-3-{[3-(1-hydroxy-1-methylethyl)-3-({5-[6-(trifluoromethyl)pyrazin-2-yl]-2,5-diazabicyclo[2.2.1]hept-2-yl}carbonyl)cyclopentyl]amino}-4-O-methylpentitol] is 4.1-fold higher in IC50: 4.34 nM for the first, 17.7 nM for the second. The first is the more potent here.

`CO[C@@H]1COCC[C@@H]1N[C@@H]1CC[C@@](C(=O)N2C[C@@H]3C[C@H]2CN3c2cc(C(F)(F)F)ccn2)(C2CCOC2)C1` (stereo partly drawn) [Example 60, ((1S,3R)-3-((3S,4S)-3-methoxy-tetrahydro-2H-pyran-4-ylamino)-1-(tetrahydrofuran-3-yl)cyclopentyl)((1S,4S)-5-(4-(trifluoromethyl)pyridin-2-yl)-2,5-diaza-bicyclo[2.2.1]heptan-2-yl)methanone] and `CO[C@@H]1COCC[C@@H]1N[C@@H]1CC[C@@](C(=O)N2C[C@@H]3C[C@H]2CN3c2cc(F)cc(C(F)(F)F)c2)(C2CCOC2)C1` (stereo partly shown) [Example 66] are within 1.5-fold of each other in IC50: 2.4 nM for the first, 1.7 nM for the second.

Going from `CO[C@@H]1COCC[C@@H]1N[C@@H]1CC[C@@](C(=O)N2C[C@@H]3C[C@H]2CN3c2cc(C(F)(F)F)ccn2)(C2CCOC2)C1` (stereo partly drawn) [Example 61, ((1S,3R)-3-((3S,4S)-3-methoxy-tetrahydro-2H-pyran-4-ylamino)-1-(tetrahydrofuran-3-yl)cyclopentyl)((1S,4S)-5-(4-(trifluoromethyl)pyridin-2-yl)-2,5-diaza-bicyclo[2.2.1]heptan-2-yl)methanone] to `CO[C@@H]1COCC[C@@H]1N[C@@H]1CC[C@@](C(=O)N2C[C@@H]3C[C@H]2CN3c2cc(C(F)(F)F)ccn2)(C(O)C(F)(F)F)C1` (stereo partly drawn) [Example 62, ((1S,3R)-3-((3S,4S)-3-methoxy-tetrahydro-2H-pyran-4-ylamino)-1-(2,2,2-trifluoro-1-hydroxyethyl)cyclopentyl)((1S,4S)-5-(4-(trifluoromethyl)pyridin-2-yl)-2,5-diaza-bicyclo[2.2.1]heptan-2-yl)methanone], the IC50 falls from 5.9 nM to 1.3 nM (4.5-fold).

`CO[C@@H]1COCC[C@@H]1N[C@@H]1CC[C@@](C(=O)N2C[C@@H]3[C@H](F)[C@H]2CN3c2cc(C(F)(F)F)ccn2)(C(C)C)C1` [Example 67, ((1R,4R,7S)-7-(fluoro)-5-(4-(trifluoromethyl)pyridin-2-yl)-2,5-diaza-bicyclo[2.2.1]heptan-2-yl)((1S,3R)-1-isopropyl-3-((3S,4S)-3-methoxy-tetrahydro-2H-pyran-4-ylamino)cyclopentyl)methanone] and `CO[C@@H]1COCC[C@@H]1N[C@@H]1CC[C@@](C(=O)N2C[C@@H]3C(F)[C@H]2CN3c2cc(C(F)(F)F)ccn2)(C(C)C)C1` (stereo partly drawn) [Example 69, ((1R,4R)-7-fluoro-5-(4-(trifluoromethyl)pyridin-2-yl)-2,5-diaza-bicyclo[2.2.1]heptan-2-yl)((1S,3R)-1-isopropyl-3-((3S,4S)-3-methoxy-tetrahydro-2H-pyran-4-ylamino)cyclopentyl)methanone] are within 1.5-fold of each other in IC50: 3.4 nM for the first, 4.3 nM for the second.

Compared with `CO[C@@H]1COCC[C@@H]1N[C@@H]1CC[C@@](C(=O)N2C[C@@H]3[C@H](O)[C@H]2CN3c2cc(C(F)(F)F)ccn2)(C(C)C)C1` [Example 68, ((1R,4R,7S)-7-hydroxy-5-(4-(trifluoromethyl)pyridin-2-yl)-2,5-diaza-bicyclo[2.2.1]heptan-2-yl)((1S,3R)-1-isopropyl-3-((3S,4S)-3-methoxy-tetrahydro-2H-pyran-4-ylamino)cyclopentyl)methanone], `CO[C@@H]1COCC[C@@H]1N[C@@H]1CC[C@@](C(=O)N2C[C@@H]3C(O)[C@H]2CN3C(=O)OC(C)(C)C)(C(C)C)C1` (stereo partly drawn) [Example 70, (1R,4R,7S)-tert-butyl 7-hydroxy-5-((1S)-1-isopropyl-3-(3-methoxy-tetrahydro-2H-pryan-4-ylamino)cyclopentanecarbonyl)-2,5-diaza-bicyclo[2.2.1]heptane-2-carboxylate] is 1.6-fold higher in IC50: 5.4 nM for the first, 8.7 nM for the second. The first is the more potent here.

Same assay, conditions: 125I-MCP-1, human PBMCs, 1 hr preincubation; read-out: IC50 (nM) 1 hr preinc

`CO[C@@H]1COCC[C@@H]1N[C@@H]1CC[C@@](C(=O)N2C[C@@H]3C[C@H]2CN3c2cc(C(F)(F)F)ccn2)(C(O)C(F)(F)F)C1` (stereo partly drawn) [Example 63, ((1S,3R)-3-((3S,4S)-3-methoxy-tetrahydro-2H-pyran-4-ylamino)-1-(2,2,2-trifluoro-1-hydroxyethyl)cyclopentyl)((1S,4S)-5-(4-(trifluoromethyl)pyridin-2-yl)-2,5-diaza-bicyclo[2.2.1]heptan-2-yl)methanone] showed an IC50 of 1.1 nM.

Reference: patent US8946413B2 (Pfizer Inc., priority 2008, dated 2015)
